Like-named read-outs stand apart in the source and are kept apart here.
Assays:
ZR-75-1 cells [1] = test: cells; conditions: for cell proliferation (3H-thymidine): six day period
Protocol: The ZR-75-1 cell line (passage 89) was obtained from the American Type Culture Collection (Rockville, Md.). The cells were cultured in RPMI-1640 medium containing 10% heat-inactivated fetal calf serum, 200 μM L-glutamine, […] HEPES, 1.5 U/ml penicillin, and 1.5 μg/ml streptomycin in 5% CO2 at 37° C. The cells were passaged twice weekly.
(§1) Cells were first seeded at initial density of 1×10^5 cells per ml in quadruplicates in 24 multi-well flat bottom plates (Costar). Cells were then allowed to adhere and grow in phenol red-free […] media supplemented with 10% heat-inactivated fetal calf serum (FCS), 200 μM L-glutamine, 10 mM HEPES, 2.5 U/ml penicillin and 2.5 μg/ml streptomycin in 5% CO2 at 37° C. After 48 hours, four wells were sacrificed and counted to determine plating efficiency. In the remaining wells, medium was removed by aspiration and cells in each well were exposed to the media containing the specified steroid. The controls containing only medium or medium with vehicle were also prepared. In all samples, medium was changed every 48 hours. At the pre-established time-point. Cells were removed by trypsinization and washed. Cell number and viability were determined by trypan blue exclusion using a hemocytometer. Parallel cultures were also run to determine cell proliferation.
(§2) For cell proliferation assays, cell suspensions were prepared by trypsinization of cells from cultures prepared in accord with methods described above. Cell viability was determined by trypan blue exclusion. The cells were then seeded in flat-bottom 96-well microtiter plates at a density of 2×10^3 cells/well and were allowed to rest for 48 hours in order to adhere. Non-adherent dead cells were removed by aspiration. Cells were then grown in media without phenol red. Some of the media contained supplements as indicated above. […] The cells were then grown for six days. Media was changed on the samples every 48 hours. On day 6, cells were pulsed with 1 μCi[…]-thymidine for the last 6 hours of incubation before harvesting onto glass filter using a HPD cell harvester (Cambridge Technology, Watertown, Mass.) and counted on a KLB scintillation counter.
ZR-75-1 cells (2×10^3) were treated as described above over a six day period with differing concentrations of αAED or with vehicle-only cultures. The medium was changed every 48 hours. Cells were pulsed with ^3H-thymidine for the last six hours of incubation.

ZR-75-1 cells [2] = conditions: trypan blue exclusion
Protocol: as §1

P388D1 cells = conditions: RU486 at 0.5 μM and 1.0 μM
Protocol: as §2

RAW 264.7 = test system: RAW 264.7
Protocol: as §2
Effects of αAED at doses of 50 ηM and 100 ηM doses on murine macrophage myeloma cells (RAW 264.7, obtained from the American Type Culture Collection) was studied.

SMILES	antiproliferative effect on growth of ZR-75-1 cells (ZR-75-1 cells [1]; alone at 100 ηM)	cell proliferation in combination with RU486 (ZR-75-1 cells [1]; 0.1 μl concentrations of αAED with 0.5 μM RU486)	cell proliferation (3H-thymidine) (ZR-75-1 cells [1]; 6.25 ηM)	cell proliferation (3H-thymidine) (ZR-75-1 cells [1]; 12.5 ηM)	cell proliferation (3H-thymidine) (ZR-75-1 cells [1]; 50 ηM)	IC50 (ZR-75-1 cells [1]; Homo sapiens, ZR-75-1, read-out: half-maximal dose of anti-proliferative effect)	maximal dose of anti-proliferative effect (ZR-75-1 cells [1]; ZR-75-1 cells, dose and time-dependent)	cell proliferation in the presence of estradiol (ZR-75-1 cells [1]; higher doses of αAED, 1 ηM estradiol, 6 day period)	concentration at which growth of ZR-75-1 cells was significantly inhibited (ZR-75-1 cells [1]; tritiated thymidine incorporation, in vitro)	cell proliferation in the presence of βAED (ZR-75-1 cells [1]; varied αAED, βAED constant at 2.5 ηM, six days)	cell proliferation in combination with RU486 (ZR-75-1 cells [1]; αAED with RU486 at 1 μM)	cytotoxicity (cell count and viability) (ZR-75-1 cells [2])	effect on growth of P388D1 cells in combination with RU486 (P388D1 cells)	proliferation of RAW 264.7 cells (RAW 264.7; 50 ηM)	proliferation of RAW 264.7 cells (RAW 264.7; 100 ηM)
C[C@]12CC[C@H]3[C@@H](CC=C4C[C@@H](O)CC[C@@]43C)[C@@H]1CC[C@@H]2O [βAED, 5-androstene 3β,17β diol, reference compound]	did not have any antiproliferative effect	–	–	–	–	–	–	–	–	–	–	–	–	–	–
C[C@]12CC[C@H]3[C@@H](CC=C4C[C@@H](O)CC[C@@]43C)[C@@H]1CC[C@H]2O [αAED, 5-androstene 3β,17α diol]	–	synergistic action to decrease proliferation of cells	increasing proliferation	decreasing cell proliferation	marked decrease	50 nM	100 ηM	suppressed proliferation even in the presence of estradiol	≥ 12.5 ηM	decreased proliferation at all concentrations	synergism was shown to be even greater	not toxic to the cells	increased effectiveness over use of one agent	significant inhibition of proliferation	significant inhibition of proliferation

From patent publication US6977251B2, “5-androstene-3β, 17α diol as an inhibitor of tumor growth” (priority 1997, dated 2005)
